In patent US4126686A, “Analgesic 3-(3-methyl-3-butenyl)-1,2,3,4,5,6-hexahydro-6,11-dimethyl-8-hydroxy-2,6 -methano-3-benzazocine” (priority 1976, dated 1978):
Like-named read-outs stand apart in the source and are kept apart here.

Key:
[1] = tested on: male mice of the dd strain; experiment: Analgesic activity by acetic acid writhing method; type: in vivo, mouse (male; conditions: mouse
Experimental: (I) Analgesic activity by acetic acid writhing method:
The experiment is carried out according to the method of Koster et al [Fed. Proc., 18, 412 (1959)].
Male mice of the dd strain weighing 19-21 g are used in groups, each consisting of 10 mice. The test compounds, i.e. the compound of formula (I), pentazocine and morphine are administered subcutaneously or orally to the test mice. Immediately after this, 0.2 ml of a 0.7% (v/v) aqueous solution of acetic acid is administered intraperitoneally to the test mice except those which has been administered orally with morphine, to which 0.2 ml of a 0.7% (v/v) aqueous solution of acetic acid is administered intraperitoneally at 15 minutes after a morphine administration. […] At 10 minutes after the administration of acetic acid, the number of writhes is counted for 10 minutes. […] ED50 is calculated according to the method of Litchfield and Wilcoxon [J. Pharmacol. & Exper. Therap., 96, 99 (1949)].

[2] = Acute toxicity (LD50) in rats; design: species or system rat (male, Wistar strain); conditions: in vivo, rat, observed one week
Experimental: (§1) The LD50 is calculated according to the method of Litchfield and Wilcoxon [J. of Pharmacol. and Exper. Therap., 96, 99 (1949)]. Male mice of the dd strain weighing 19-21 g and male rats of the Wistar strain weighing 80-100 g are used. One group consists of 10 mice or 10 rats. The compound of formula (I) and pentazocine are administered subcutaneously or orally to the test animals which are observed for one week.

[3] = Analgesic activity compared with pentazocine (general statement); type: in vivo; conditions: in words
[4] = tested on: male rats of the Wistar strain; experiment: Analgesic activity by bradykinin method; type: in vivo, rat (male; conditions: rat
Experimental: (IV) Analgesic activity by bradykinin method:
The experiment is carried out according to the method of Abe et al [Nihon Yakuri Gakkai Si (J. Japanese Pharmacological Academy) 67, 9 (1971)].
(§2) In this experiment, male rats of the Wistar strain weighing 210-260 g were used in groups, each consisting of 10 rats. A cannula is inserted into the right carotid artery of the rat anesthetized with ether. After recovering completely from ether anesthesis, 0.2 ml of a physiological salt solution containing bradykinin in an amount of about 2 μg/ml is injected retrogradely to the rat through the cannula. […] The compound of formula (I), pentazocine or morphine is administered subcutaneously or orally to the rat. At 15, 30, 60, 90 and 120 minutes after the administration of the test compound, bradykinin is injected repeatedly to the rat in a similar manner to that described above. […] ED50 is calculated according to the method of Litchfield and Wilcoxon [J. Pharmacol. & Exper. Therap., 96, 99 (1949 )].

[5] = tested on: male mice of the dd strain; experiment: animal or person; type: in vivo, mouse (male; conditions: tail flick, mouse, subcutaneous administration
Experimental: (II) Analgesic activity by Tail Flick method:
The experiment is carried out according to the method of Tail Flick (D'Amour-Smith method) [J. Pharmacol., 72, 74 (1941)].
A light beam of an infrared lamp (100 V; 250W) is passed through a hole having a diameter of a half inch and is irradiated onto the end of the tail of each mouse (male dd strain; weight: 19-21 g) to effect a heat stimulation. […] The compound of formula (I), pentazocine or morphine is administered subcutaneously to the mice. At 15, 30, 60, 90 and 120 minutes after the administration, the heat stimulation is repeatedly carried out to the mice in a similar manner to that described above and after each heat stimulation the time until the flick reaction occurs is measured. […] ED50 is calculated according to the above-mentioned method of Litchfield and Wilcoxon.

[6] = tested on: male mice of the dd strain; experiment: Analgesic activity by tail pinch method; type: in vivo, mouse (male; conditions: mouse
Experimental: (III) Analgesic activity by tail pinch method:
The experiment is carried out according to the method of H. Takagi et al [Jap. J. Pharmacol., 16, 287 (1966)].
In this experiment, male mice of the dd strain weighing 19-21 g are used in groups, each consisting of 10 mice. Before the experiment, animals which are sensitive to pressure stimulation are selected in the following manner.
The compound of formula (I), pentazocine or morphine is administered subcutaneously or orally to the selected mice. At 15, 30, 60, 90, and 120 minutes after the administration, an artery clip is repeatedly applied to the root of the tail of each mouse. […] ED50 is calculated according to the method of Litchfield and Wilcoxon [J. Pharmacol. & Exper. Therap., 96, 99 (1949)].

[7] = Acute toxicity (LD50) in mice; design: species or system mouse (male, dd strain); conditions: in vivo, mouse, observed one week
Experimental: as §1

[8] = Margin of safety (R = LD50/ED50), bradykinin, rat; conditions: in vivo, sc, S.C. in rat
Experimental: as §1, §2
The usefulness of the compound as medicament is expressed by margin of safety (R) of the compound which is calculated by (LD50 /ED50). […]

[9] = Margin of safety (R = LD50/ED50), acetic acid writhing, mouse; conditions: in vivo
Experimental: as §1
Male mice of the dd strain weighing 19-21 g are used in groups, each consisting of 10 mice. The test compounds, i.e. the compound of formula (I), pentazocine and morphine are administered subcutaneously or orally to the test mice. Immediately after this, 0.2 ml of a 0.7% (v/v) aqueous solution of acetic acid is administered intraperitoneally to the test mice except those which has been administered orally with morphine, to which 0.2 ml of a 0.7% (v/v) aqueous solution of acetic acid is administered intraperitoneally at 15 minutes after a morphine administration. The mice of a control group are not administered with the test compounds but with only the acetic acid solution in a similar manner to that described above. At 10 minutes after the administration of acetic acid, the number of writhes is counted for 10 minutes. When the writhing numbers of the test group decrease to below 50% of the corresponding numbers of the control group, the test compound is determined to be analgesically active. ED50 is calculated according to the method of Litchfield and Wilcoxon [J. Pharmacol. & Exper. Therap., 96, 99 (1949)].
The usefulness of the compound as medicament is expressed by margin of safety (R) of the compound which is calculated by (LD50 /ED50). Compounds having higher R are deemed to be more useful as medicament than those having lower R. The margins of safety of the compound of formula (I) and pentazocine are shown in Table 6.

[10] = oral administration, read-out: ED50
[11] = sc, subcutaneous administration, read-out: ED50
[12] = sc, subcutaneous administration

Row | Structure (SMILES) | ED50 [1, 10] | ED50 [1, 11] | LD50 at 168 h [2, 12] | LD50 at 168 h ([2]; oral administration) | ED50 [4, 10] | ED50 [4, 11] | ED50 ([5]; sc, read-out: ED50) | ED50 [6, 10] | ED50 [6, 11] | LD50 at 168 h [7, 12] | LD50 at 168 h ([7]; oral administration) | selectivity ratio [8] | selectivity ratio ([9]; po, P.O. in mouse) | selectivity ratio ([9]; sc, S.C. in mouse) | also measured
1 | C=C(C)CCN1CCC2(C)c3cc(O)ccc3CC1C2C (stereo not drawn) [Compound of formula (I), 3-(3-methyl-3-butenyl)-1,2,3,4,5,6-hexahydro-6,11-dimethyl-8-hydroxy-2,6-methano-3-benzazocine] | 14.3 mg/kg | 0.09 mg/kg | 61 mg/kg | > 300 mg/kg | 35 mg/kg | 0.38 mg/kg | 0.76 mg/kg | 29.3 mg/kg | 0.51 mg/kg | 80 mg/kg | 205 mg/kg | 161 | 14.3 | 889 | analgesic activity [3]: unexpectedly a better analgesic activity than the known pentazocine
2 | CN1CC[C@]23c4c5ccc(O)c4O[C@H]2[C@@H](O)C=C[C@H]3[C@H]1C5 [Morphine, morphine] |  |  |  |  |  |  |  |  |  |  |  |  |  |  | ED50 ([1]; oral administration): 5.1 mg/kg; ED50 ([1]; subcutaneous administration): 0.56 mg/kg; ED50 ([4]; oral administration): 85 mg/kg; ED50 ([4]; subcutaneous administration): 4.8 mg/kg; ED50 [5]: 5.2 mg/kg; ED50 ([6]; oral administration): 35.5 mg/kg; ED50 ([6]; subcutaneous administration): 3.5 mg/kg
3 | CC(C)=CCN1CCC2(C)c3cc(O)ccc3CC1C2C (stereo not drawn) [Pentazocine, 3-(3-methyl-2-butenyl)-1,2,3,4,5,6-hexahydro-6,11-dimethyl-8-hydroxy-2,6-methano-3-benzazocine] | 82 mg/kg | 3.45 mg/kg | 165 mg/kg | > 400 mg/kg | > 100 mg/kg | 10.5 mg/kg | > 40 mg/kg | > 40 mg/kg | > 40 mg/kg | 140 mg/kg | 305 mg/kg | 15.7 | 3.7 | 40.6 | 
